This is an account of results in patent publication US20060025430A1, “Novel irreversible inhibitors of epidermal growth factor receptor tyrosine kinase and uses thereof for therapy and diagnosis” (priority 2003, published 2006).

One series deals with T1, EGFR-TK (Homo sapiens, UniProt P00533).
T1 construct: The supernatant, which contained the EGFR, was collected and frozen; endogenous in cells; host or cells: A431 cells (A1: Triton X-100 lysate captured on mAb108; A2: intact cells)
The series can be described thus: EGFR-TK autophosphorylation inhibition in intact A431 cells (irreversibility assay, Western blot). In kind it is cell-based. As to conditions: inhibitor concentration at which 50% inhibition was achieved eight hours post incubation, intact A431 cells, eight hours post incubation. On the procedure: A431 cells (5×10^5) were seeded in 6-well plates and grown for 24 hours to about 90% confluence in DMEM (high glucose) containing 10% fetal calf serum (FCS) and antibiotics at 37° C. The cells were then exposed to serum-free medium, at 37° C., for 18 hours.
[…] The medium was replaced thereafter with an inhibitor/FCS-free medium and the cells were divided into two groups: cells of the first group were immediately stimulated with EGF (20 ng/ml) for 5 minutes and then washed with PBS, while cells of the second group were incubated for additional 8 hours, at 37° C. During the 8 hours period, the medium was changed three times (after 2, 4 and 8 hours). After the post-incubation period, the cells of the second group were stimulated with EGF (20 ng/ml) for 5 minutes and then washed with PBS.
Identical protein amounts from each lysate sample were loaded onto polyacrylamide gel (6% or 10%), separated by electrophoresis (Hoefer Pharmacia Biotech Inc., San Francisco, USA) and transferred to nitrocellulose membrane (power supply: EPS 500/400, Amersham Pharmacia Biotech; nitrocellulose extra blotting membranes: Sartorius AG, Goettingen, Germany). A standard high molecular weight solution was loaded as a reference. For visualization of molecular weight bands, the membrane was immersed in Ponceau reagent (0.05% Ponceau, 5% acetic acid) for a few minutes, and then washed twice with TTN (10 mM Tris pH 7.4, 0.2% TWEEN 20, 170 mM NaCl) and once with water. The membrane was blocked overnight in TTN containing 5% milk (1% fat) (blocking TTN) and incubated for 90 minutes with PY20 antiphosphotyrosine antibody (Santa Cruz Biotechnology Inc., Santa Cruz, USA) diluted 1:2,000 in blocking TTN. The membrane was then washed with TTN (3×5 minutes), incubated for 90 minutes with a horseradish peroxidase-conjugated secondary antibody (Goat anti-mouse IgG H+L, Jackson ImResearch Laboratories, Inc., diluted 1:10,000 in blocking TTN), and finally washed again with TTN (3×5 minutes).
After the incubation, the media was replaced with inhibitor/FCS-free media and the inhibition effect was measured either immediately thereafter or after 8 hours post incubation.
On the technique in general: A western blot detects proteins with antibodies after separation by electrophoresis.

The nature of series [1]: Challenge reaction with reduced glutathione (HPLC conversion to conjugates). In kind it is physicochemical. On the procedure: Standard solutions were prepared by dissolving compound 5, Compound 6 and {4-[(3,4-dichloro-6-fluorophenyl)amino]quinazol ine-6-yl}acrylamide (0.0146 mmol) in 1.75 ml of THF: MeOH (1:2) and glutathione (18 mg, 0.0586 mmol) in 0.5 ml of water. A 300 μL aliquot of the quinazoline standard solution (2.5 μmol) was diluted with 689 μL of THF:MeOH:H2O (1:2:1), after which 11 μL (1.25 μmol) of glutathione solution and 5.22 μL (30 μmol) of N,N′-diisopropylethylamine were added. Conversions of the quinazolines and formation of conjugates at different time points were measured by HPLC using RP (3.9×300 mm) column (mobile phase of acetonirile and acetate buffer 0.1 M (2:3) at a flow rate of 1 ml/min was used herein). The glutathione conjugates were further detected by MS.
As discussed hereinabove, EGFR blockade by irreversible inhibitors is due to the nucleophilic attack of the sulfhydryl group of Cys-773 at the receptor's ATP binding pocket on the reactive chemical group of the EGFR targeted inhibitor. In order to evaluate the chemical reactivity of the novel irreversibly EGFR inhibitors decribed herein, the degree of reactivity of the inhibitors towards the sulfhydryl group of reduced glutathione (GSH) as a nucleophile was tested. Thus, Compound 5, Compound 6 and {4-[(3,4-dichloro-6-fluorophenyl)amino]quinazoline-6-yl}acrylamide were dissolved in THF: MeOH: H2O (1:2:1), and were reacted at room temperature with half an equivalent of reduced glutathione in the presence of 12 equivalents of N,N-diisopropylethylamine. Identical aliquots of the reaction mixtures were taken at various time points and injected into reversed-phase HPLC in order to determine the conversion-rate of the various compounds into glutathione-conjugates. The characteristics of the products were determined using MS.
A study of the reaction rate as a function of the temperature was also performed. Thus, the reaction ws performed at various temperatures ranging from 0° C. and 60° C. The following activation parameters were generated: For {4-[(3,4-dichloro-6-fluorophenyl)amino]quinazoline-6-yl}acrylamide: Ea=5.24 kCalmol^−1, ΔH^#25° C.=4.64 kCalmol^−1 and ΔS^#25° C.=−61.24 Calmol^−1K^−1. For compound 5: Ea=11.4 kCalmol^−1, ΔH^#25° C.=10.80 kCalmol^−1 and ΔS^#25° C.=−41.29 Calmol^−1K^−1.
The reaction rate was calculated using the following rate equation: [formula] kobs=Ae^−Ea/RT

T1 sequence (P00533 25-1210): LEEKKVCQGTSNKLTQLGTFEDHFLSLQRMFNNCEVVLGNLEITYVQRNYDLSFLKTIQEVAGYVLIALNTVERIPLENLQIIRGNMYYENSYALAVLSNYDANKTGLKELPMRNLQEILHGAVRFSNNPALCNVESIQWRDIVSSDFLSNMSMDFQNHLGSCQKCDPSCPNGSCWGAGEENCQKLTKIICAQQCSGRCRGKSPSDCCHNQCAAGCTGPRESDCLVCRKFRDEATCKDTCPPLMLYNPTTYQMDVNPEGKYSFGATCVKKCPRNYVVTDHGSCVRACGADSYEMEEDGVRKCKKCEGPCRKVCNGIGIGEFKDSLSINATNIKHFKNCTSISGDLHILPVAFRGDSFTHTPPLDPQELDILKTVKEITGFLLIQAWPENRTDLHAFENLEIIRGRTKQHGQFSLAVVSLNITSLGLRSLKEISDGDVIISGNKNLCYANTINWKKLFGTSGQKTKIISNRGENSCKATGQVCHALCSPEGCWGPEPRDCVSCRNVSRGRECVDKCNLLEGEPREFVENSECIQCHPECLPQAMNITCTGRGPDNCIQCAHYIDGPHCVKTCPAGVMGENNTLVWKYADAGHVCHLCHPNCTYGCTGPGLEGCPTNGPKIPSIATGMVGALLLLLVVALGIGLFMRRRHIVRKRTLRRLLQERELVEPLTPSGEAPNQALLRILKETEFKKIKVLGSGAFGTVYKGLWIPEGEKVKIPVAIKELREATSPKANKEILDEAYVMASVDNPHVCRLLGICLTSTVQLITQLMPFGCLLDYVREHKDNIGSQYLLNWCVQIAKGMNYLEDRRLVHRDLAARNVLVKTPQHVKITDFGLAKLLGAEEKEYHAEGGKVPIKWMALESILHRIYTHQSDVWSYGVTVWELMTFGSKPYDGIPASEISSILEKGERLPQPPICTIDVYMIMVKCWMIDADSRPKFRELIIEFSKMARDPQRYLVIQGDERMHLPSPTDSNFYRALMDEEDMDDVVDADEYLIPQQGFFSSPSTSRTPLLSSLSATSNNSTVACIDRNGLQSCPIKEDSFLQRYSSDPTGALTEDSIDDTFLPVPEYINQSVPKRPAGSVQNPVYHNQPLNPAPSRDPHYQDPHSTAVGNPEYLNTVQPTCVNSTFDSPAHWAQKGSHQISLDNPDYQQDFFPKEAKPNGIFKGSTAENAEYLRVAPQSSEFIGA

As to `O=C(CCl)Nc1ccc2ncnc(Nc3cc(Cl)c(Cl)cc3F)c2c1` [Compound 5, N-{4-[(4,5-Dichloro-2-fluoro-phenyl)amino]-quinazolin-6-yl}-2-chloroacetamide], the melting point was more than 300 °C. In addition, the concentration for half-maximal inhibition (IC50) at EGFR-TK lay in the range of 10 to 50 nM. In series [1] (25° C.), the “ΔH^# 25° C. of reaction with reduced glutathione” value was found to be 10.80 kCalmol^−1 and the “ΔS^# 25° C. of reaction with reduced glutathione” value is reported as −41.29 Calmol^−1K^−1. In addition, the “activation energy Ea of reaction with reduced glutathione” value in series [1] (temperatures from 0° C. to 60° C.) is given as 11.4 kCalmol^−1.

In general, melting point refers to the temperature of the solid-liquid transition. A word on the IC50: it is the concentration that inhibits the measured activity by half. Lower therefore signals greater potency in that assay.
